Entries after “also recorded” stand apart in the source; their conditions may differ.
How the values were obtained:
[1] = tested on: INS-1 insulin-secreting β-cells; experiment: Insulin secretion in INS-1 cells under low-glucose (1.4 mmol·L^−1) condition; format: cell-based; settings: 1.4 mmol·L^−1 glucose; maximal concentration tested 20
Method: (§1) The insulin-secreting cell line INS-1 (a gift from Professor C. B. Wollheim) was cultured in RPMI-1640, supplemented with 10% fetal calf serum (FCS), 100 U·mL^−1 penicillin, 100 μg·mL^−1 streptomycin, 2 mmol·L^−1 L-glutamine, 10 mmol·L^−1 HEPES, 1 mmol·L^−1 sodium pyruvate, and […] 2-mercaptoethanol, as previously described by Youl et al. (2010). Cells were seeded in 24-well plates (4×10^5 cells per well) and were used for experiments after 5 days of culture.
(§2) Before the treatment, RPMI medium was removed and the cells were washed twice with HEPES-balanced Krebs-Ringer bicarbonate buffer (KRB) containing (in mmol·L^−1): 123 NaCl, 5.4 KCl, 1.3 KH2PO4, 2.7 MgSO4, 2.9 CaCl2, 5 NaHCO3 and 20 HEPES, pH 7.5, with 2 g·L^−1 bovine serum albumin (KRB/BSA). Cells were incubated for 1 h (5% CO2, 37° C.) in KRB medium containing 8.3 mmol·L^−1 glucose (glucose-stimulated secretion) in the presence or absence of the compounds tested. At the end of the 1 h incubation period, the medium was sampled and stored at −20° C. until the insulin assay. Insulin concentration in cell supernatants was determined using the homogeneous time resolved fluorescence technology (HTRF), according to the manufacturer's instructions (HTRF insulin assay kit, Cisbio International, Bagnols-sur-Ceze, France). Briefly, two anti-insulin antibodies were used; one labelled with Eu^3+-Cryptate and one labelled with XL665 recognizing distinct epitopes. When these two fluorophores bind to insulin molecules, the two antibodies come into close proximity, allowing fluorescence resonance energy transfer (FRET) to occur between the Eu^3+-Cryptate and the XL665. This FRET increases proportionally with the insulin concentrations. All the experiments were performed at least in quadruplicate.
(§3) Material and methods were the same as described in example 1. For the determination of insulin secretion, cells were incubated for 1 h (5% CO2, 37° C.) in KRB medium containing either 1.4 mmol·L^−1 glucose (low-glucose) or 8.3 mmol·L^−1 glucose (glucose-stimulated secretion) in the presence or absence of the compounds tested. At the end of the 1 h incubation period, mediums were sampled and stored at −20° C. until the insulin assay. Insulin concentration in cell supernatants was determined as described in Example 1.

[2] = tested on: INS-1 insulin-secreting β-cells; experiment: Glibenclamide-stimulated insulin secretion in INS-1 cells; format: cell-based; settings: for stimulation of insulin secretion in the presence of glibenclamide: 0 to 20 μmol·L^−1
Method: as §1, §2
as §3, with “containing” for “containing either”, “(low-glucose condition) and 0.01 μmol·L^−1 glibenclamide (glibenclamide-stimulated secretion),” for “(low-glucose) or 8.3 mmol·L^−1 glucose (glucose-stimulated secretion)”, “urolithins.” for “the compounds tested.”, “the medium was” for “mediums were”

[3] = tested on: INS-1 insulin-secreting β-cells; experiment: Insulin secretion in INS-1 cells in the presence of oxidative stress (H2O2); format: cell-based; settings: 8.3 mmol·L^−1 glucose + H2O2; for concentration active in preventing insulin secretion impairment induced by H2O2: lowest active concentration
Method: as §2
For protection experiments, INS-1 cells were pre-incubated with the indicated concentrations of urolithins for one hour (5% CO2, 37° C.) in RPMI medium. After two washes in HEPES-balanced Krebs-Ringer bicarbonate buffer (123 mmol·L^−1 NaCl, 5.4 mmol·L^−1 KCl, 1.3 mmol·L^−1 KH2PO4, 2.7 mmol·L^−1 MgSO4, 2.9 mmol·L^−1 CaCl2, 5 mmol·L^−1 NaHCO3 and 20 mmol·L^−1 HEPES, pH 7.5) containing 2 g·L^−1 bovine serum albumin (KRB/BSA), INS-1 cells were incubated for one hour (5% CO2, 37° C.) in KRB/BSA containing urolithins at the indicated concentrations in the presence of 1.4 mmol·L^−1 glucose (basal condition) or 8.3 mmol·L^−1 glucose (stimulant condition). When used, H2O2 (50 gmol·L^−1) was added at the beginning of the one-hour incubation period. Control experiments were performed in the basal condition, in the absence of urolithins during the pre-incubation and incubation periods.
Insulin secretion was determined as described above by measuring insulin accumulation after a one-hour incubation period.

[4] = tested on: INS-1 insulin-secreting β-cells; experiment: Exendin + glucose-stimulated insulin secretion in INS-1 cells; format: cell-based; settings: 8.3 mmol·L^−1 glucose + 0.001 μmol·L^−1 exendin; for maximal response, stimulation as compared to exendin alone: 20
Method: as §1, §2
Material and methods were the same as described in example 1. For the determination of insulin secretion, cells were incubated for 1 h (5% CO2, 37° C.) in KRB medium containing 8.3 mmol·L^−1 glucose (glucose-stimulated condition) and exendin (0.001 μmol·L^−1) in the presence or absence of the compounds tested. Data were expressed as percent of exendin (0.001 μmol·L^−1)+glucose (8.3 mmol·L^−1)-stimulated insulin secretion (“control 100%”) (FIGS. 4A-D).

[5] = tested on: rat isolated perfused pancreas; experiment: Insulin secretion in the rat isolated perfused pancreas; settings: for AUC of insulin produced above the basal level: urolithins 10 μM
Method: Pancreas was isolated from male Wistar rats of 250-300 g body weight under pentobarbital anaesthesia (60 mg/kg i.p.). Previously described technique (Cadene et al., 1996) was used to isolate the pancreas from neighboring tissues. The organ was then transferred into a plastic chamber maintained at 37.5° C. Perfusion medium was Krebs-Ringer bicarbonate buffer containing 2 g/l bovine serum albumin and 5 mmol·L^−1 (non stimulant condition) or 8.3 mmol·L^−1 (stimulant condition) glucose, and continuously bubbled with a mixture of 95% O2/5% CO2. Infusion pressure was selected to provide a pancreatic outflow of 2.5 ml/min. The first sample was taken 30 min after initiation of perfusion to allow for an adaptation period. Two additional control samples were collected 10 and 15 min later, immediately followed by switching to the same buffer containing urolithins (10 μmol·L^−1). Pancreatic effluents were then collected at the following times (minutes): 17, 18, 19, 20, 21, 27, 32, 42. Pancreas was then washed using the same buffer in the absence of urolithin. Two additional samples were taken 5 and 15 min after urolithin withdrawal.
All samples were collected for 1 min allowing determinations of pancreatic effluent output, and immediately frozen for insulin assay (Cisbio HTRF method). Insulin output rate (ng/min) was calculated by multiplying the hormone concentration (ng/ml) in the effluent by the corresponding flow rate (ml/min).
Amplitude of stimulation of insulin secretion by urolithins was estimated by calculating the Area Under the Curve (AUC) of insulin produced above the basal level (trapezoidal rule). Before administration of urolithins, insulin secretion levels were 3.39±0.58 ng/min (n=14 pancreases) and 67.5±7.80 ng/min (n=15 pancreases), for 5 mmol·L^−1 and 8.3 mmol·L^−1 glucose, respectively.

[6] = 1.4 mmol·L^−1 glucose + 0.01 μmol·L^−1 glibenclamide

What does the source list for O=c1oc2c(O)c(O)ccc2c2cc(O)c(O)cc12 [Urolithin D, urolithin D]?
stimulation of insulin secretion in low-glucose condition [1]: induced some stimulation; stimulation of insulin secretion in the presence of glibenclamide [2]: concentration-dependently stimulated insulin secretion; concentration active in preventing insulin secretion impairment induced by H2O2 [3]: 5 µM; raise of insulin secretion in the presence of exendin and glucose [4]: induced a significant concentration-dependent stimulation of insulin secretion; maximal response, stimulation as compared to exendin alone [4]: 140%; AUC of insulin produced above the basal level [5]: 387.5 ng insulin secreted for 32 min

O=c1oc2cc(O)ccc2c2ccccc12 [Urolithin B, urolithin B] was tested. Which “stimulation of insulin secretion in low-glucose condition” value [1] did it give?
The value was “induced some stimulation”.

What about the “stimulation of insulin secretion in the presence of glibenclamide” value [2] of the same compound?
Its value is “concentration-dependently stimulated insulin secretion”.

And the “maximal response, stimulation as compared to glibenclamide alone” value [2, 6]?
Its value is 130%.

And the “insulin secretion stimulation as compared to control conditions” value ([3]; 20 μmol·L^−1)?
Its value is 200%.

And the “insulin secretion stimulation as compared to control conditions” value [3]?
Its value is 150%.

What about the concentration active in preventing insulin secretion impairment induced by H2O2 [3] of the same compound?
Its concentration active in preventing insulin secretion impairment induced by H2O2 is 5 µM.

What about the “raise of insulin secretion in the presence of exendin and glucose” value [4] of the same compound?
Its value is “did not induce a significant raise of insulin secretion; also recorded: did not amplify exendin-stimulated insulin secretion”.

What about the “AUC of insulin produced above the basal level” value [5] of the same compound?
The value was 142.0 ng insulin secreted for 32 min.

What does the source list for O=c1oc2cc(O)ccc2c2ccc(O)cc12 [Urolithin A, urolithin A]?
stimulation of insulin secretion in low-glucose condition [1]: did not significantly stimulate insulin secretion; also recorded: does not stimulate insulin secretion; stimulation of insulin secretion in the presence of glibenclamide [2]: concentration-dependently stimulated insulin secretion; concentration at which maximal effect was obtained [2, 6]: 5 µmol/L; concentration active in preventing insulin secretion impairment induced by H2O2 [3]: 20 µM; raise of insulin secretion in the presence of exendin and glucose [4]: did not induce a significant raise of insulin secretion; also recorded: did not amplify exendin-stimulated insulin secretion; AUC of insulin produced above the basal level [5]: 2609.5 ng insulin secreted for 32 min

Which results are given for O=c1oc2cc(O)ccc2c2cc(O)c(O)cc12 [Urolithin C, urolithin C]?
stimulation of insulin secretion in low-glucose condition [1]: induced some stimulation; stimulation of insulin secretion in the presence of glibenclamide [2]: concentration-dependently stimulated insulin secretion; EC50 [2, 6]: ~5 µM; maximal response, stimulation as compared to glibenclamide alone [2, 6]: about 200%; stimulation of glibenclamide-induced response ([2]; urolithin 5 μmol·L^−1, 1.4 mmol·L^−1 glucose + 0.01 μmol·L^−1 glibenclamide): about 150%; insulin secretion stimulation as compared to control conditions ([3]; 20 μmol·L^−1): 200%; concentration active in preventing insulin secretion impairment induced by H2O2 [3]: 5 µM; raise of insulin secretion in the presence of exendin and glucose [4]: induced a significant concentration-dependent stimulation of insulin secretion; maximal response, stimulation as compared to exendin alone [4]: about 185%; effect on insulin secretion under non-stimulating glucose condition ([5]; 10 μmol·L^−1, 5 mmol·L^−1 glucose): had no effect; effect on insulin secretion under stimulating glucose condition ([5]; 10 μmol·L^−1, 8.3 mmol·L^−1 glucose): induced a major amplification; lowest concentration inducing some stimulation of insulin secretion ([5]; stimulating glucose condition): 1 µM; AUC of insulin produced above the basal level [5]: 9160.0 ng insulin secreted for 32 min

Source: patent US11213508B2, “Compositions comprising urolithins and uses thereof for the stimulation of insulin secretion” (Centre National de la Recherche Scientifique (CNRS), priority 2013, dated 2022)
